From patent publication US9975881B2, “Compound” (ASTRAZENECA AB, priority 2011, dated 2018)

Key:
[1] = Human hepatic intrinsic clearance (CLint) from human hepatocyte incubations; assay type: in vitro ADME; details: cryopreserved human hepatocytes in suspension, 1×10^6 cells/ml, 1 μM compound, no HSA, pH 7.4
Excerpt: Measurement of Human Hepatic Intrinsic Clearance (CLint)
For the majority of drugs, a large component of their plasma clearance is contributed by hepatic metabolism. Intrinsic clearance (CLint) is a measure of the potential of a compound to undergo metabolism and can be related to hepatic clearance in vivo from a consideration of plasma protein binding and liver blood flow. Therefore, CLint may be used as a key parameter in predicting the half-life of a compound in humans. […]
An aliquot of cell suspension (0.2 mL) was diluted with 0.2 ml protein-free suspension buffer. […] The cells were then counted (central square only) using an inverted microscope, viable cells being able to exclude the dye and non-viable cells being stained. The percentage of viable cells in the preparation was calculated thus:
The concentration of viable cells was calculated: Viable cells ml^−1=Viable cell count×10^4×3×50 […]
At appropriate time points (e.g. 5, 15, 30, 45, 60, 75, 90 and 120 min), aliquots (40 μl) were taken out of the incubation mix and added to 3 volumes of methanol to terminate the reactions and denature the hepatocytes. […] The supernatants were transferred to micro titre plates and analysed by HPLC-MSMS using the following method as a suitable starting point: […]

plasma proteins = assay: Human plasma protein binding (hPPB), equilibrium dialysis; assay type: in vitro ADME; details: human plasma pH 7.4, 37° C., 18 hours, 10 μM
Method: Measurement of Human Plasma Protein Binding (hPPB)
The extent of binding of a drug to plasma proteins is a crucial factor in determining in vivo potency and pharmacokinetics. The method used for determining the extent of plasma protein binding involves equilibrium dialysis of the compound between plasma and buffer at 37° C. The concentrations of compound in the plasma and buffer are then determined using high pressure liquid chromatography (HPLC) with mass spectroscopy (MS) detection. The dialysis method involves the use of mixtures of up to 10 compounds simultaneously. At the concentrations used in the assay, there is no significant difference in the results when compounds are run singly or in mixtures.
Membranes (molecular weight cut-off 5000) were first prepared by soaking in the dialysis buffer for a minimum of 1 hour. […]
The samples and standards were then analysed using HPLC with MS detection, which allows deconvolution of the mixtures of compounds. […]
The chromatograms were processed using MassLynx software that automatically calculates a calibration curve for each compound in a mixture and then interpolates the concentrations of buffer and plasma samples. […] The percentage bound was calculated from the MassLynx data using the following equation: […]
The % free (100-% bound) for each compound was calculated from the concentration data, and then recorded.

**Q.** Which hepatocyte CLint at 1 μM [1] does the source give for CC1CN(S(=O)(=O)Nc2cc(O[C@H](C)[C@@H](O)CO)nc(SCc3ccc(F)cc3)n2)C1 [Example 1, N-(6-((2R,3S)-3,4-Dihydroxybutan-2-yloxy)-2-(4-fluorobenzylthio)pyrimidin-4-yl)-3-methylazetidine-1-sulfonamide] here?
**A.** Its hepatocyte CLint at 1 μM is 2.9 µL/min/1e6 cells.

**Q.** What about the “human plasma protein binding (% free)” value (plasma proteins) of the same compound?
**A.** Its value is 0.11 (±0.05) % free.
